In patent US20090035440A1, “Compositions comprising polyphenol” (Conopco, Inc. d/b/a Unilever, priority 2007, published 2009):

Experiments:
[1] = 1H-NMR estimate of non-complexed (free) EGCG in mixed systems with complexing agent; type: binding; details: 0.6 wt % EGCG and 0.6 wt % CA in de-ionized water; pH 5.0 (WPI pH 6.5); 1H-NMR at 27° C.
Protocol: (§1) Stock solutions containing 1.2 wt % EGCG were prepared by adding the powder to de-ionized water (conductivity=18.2 MΩ.cm) and stirring at 40° C. […] Stock solutions of pectin, were prepared by dissolving powder in de-ionized water at 80° C. for 1 hour and then cooling to 25° C. After dissolving the material, the pH of all samples, except for the WPI, was adjusted to 5.0 using 0.01 HCl or 0.1 M NaOH. The WPI was used at a pH of 6.5 to avoid precipitation of the whey proteins. In all cases the maximum ionic strength would remain below 10 mM. After setting the pH, mixed systems were prepared by quickly adding a fixed weight of the stock EGCG-solution into the same weight of complexing agent (CA)-solution under continuous stirring. Thus the final samples contained 0.6 wt % EGCG and 0.6 wt % CA.
Proton-NMR measurements were carried out on 0.6 ml samples in 5 mm NMR tubes at 27° C. using a Bruker AV600 NMR spectrometer. Prior to measurement, 5% (w/w) of D2O was added to each sample. The spectra were acquired with presaturation of the water signal using the Bruker pulse program: noesygppr1d. A signal at ˜4.7 ppm was from residual water and was ignored for data analysis purposes. […] This calibration curve was used to estimate the amount of non-complexed (or “free”) EGCG in the samples.

[2] = Appearance of EGCG/complexing agent mixed systems (Example 1); type: physicochemical; details: 0.6 wt % EGCG and 0.6 wt % CA
Protocol: as §1

[3] = Dynamic light scattering particle size of EGCG/complexing agent mixed systems (Example 1); type: physicochemical; details: 0.6 wt % EGCG and 0.6 wt % CA; DLS at 25° C., undiluted; volume-averaged; one value per peak where more than one peak
Protocol: as §1
DLS measurements were performed within 4 hours after sample preparation using a Zetasizer Nano ZS instrument (Malvern Instruments, Malvern, UK). This instrument records intensity fluctuations of scattered light at a fixed angle from clear samples containing particles between 1 and 1000 nm in size. These fluctuations are converted into an autocorrelation function spanning time scales between picoseconds and seconds. The instrument software fits intensity- and volume-weighed size distributions to the recorded autocorrelations. Samples were measured without any dilution at 25° C. […]

Compound | Amount of EGCG free in solution (wt % of total EGCG) [1] | Appearance [2] | Average Particle Size (nm) [3] [nm]
O=C(O)[C@@H]1CCCN1 [L-proline] | 100 wt % of total EGCG | Transparent | 2
poly-L-proline | 0 wt % of total EGCG |  | 
